Measured values from patent US20250230193A1, “CYCLIC COMPOUND HAVING SELECTIVE KRAS INHIBITORY EFFECT ON HRAS AND NRAS” (CHUGAI SEIYAKU KABUSHIKI KAISHA, priority 2022, published 2025).

Legend:
[1] = biological target: GDP-bound HRAS wild-type protein (Homo sapiens, UniProt P01112); assay: Binding to HRAS by surface plasmon resonance (SPR), Single Cycle Kinetics
[2] = biological target: GDP-bound NRAS wild-type protein (Homo sapiens, UniProt P01111); assay: Binding to NRAS by surface plasmon resonance (SPR), Single Cycle Kinetics
GDP-bound NRAS wild-type protein, sequence (P01111 whole entry): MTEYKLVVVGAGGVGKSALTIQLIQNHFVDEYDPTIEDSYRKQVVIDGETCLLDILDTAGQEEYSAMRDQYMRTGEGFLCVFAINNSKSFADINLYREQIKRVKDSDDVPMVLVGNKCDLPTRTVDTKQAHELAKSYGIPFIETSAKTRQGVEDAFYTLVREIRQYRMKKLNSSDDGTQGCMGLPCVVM

[3] = KD ratio, GDP-bound HRAS wild-type vs GDP-bound KRAS wild-type, SPR
[4] = KD ratio, GDP-bound NRAS wild-type vs GDP-bound KRAS wild-type, SPR
[5] = SPR, GDP-bound wild-type proteins

GDP-bound HRAS wild-type protein, sequence (P01112 whole entry): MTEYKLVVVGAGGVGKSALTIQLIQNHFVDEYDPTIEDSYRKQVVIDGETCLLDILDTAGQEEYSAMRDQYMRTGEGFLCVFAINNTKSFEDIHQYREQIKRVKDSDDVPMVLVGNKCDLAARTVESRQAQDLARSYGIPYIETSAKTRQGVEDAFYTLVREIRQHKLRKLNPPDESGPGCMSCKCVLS

CCOC[C@H]1C(=O)N[C@@H]([C@@H](C)CC)C(=O)N(C)CC(=O)N(C)[C@H]2C/C=C\CCN(C2=O)[C@@H](Cc2ccc(C(F)(F)F)cc2)C(=O)N(C)CC(=O)N[C@@H](CCc2ccc(C(F)(F)F)c(OC)c2)C(=O)N2C[C@H](OCC)C[C@H]2C(=O)NC2(CC(C)(C)C2)C(=O)N(C)[C@@H](CC(C)(C)C)C(=O)N(C)[C@H](C(=O)N(C)C)CC(=O)N1C [PP2736]
HRAS/KRAS (ratio of KD value with respect to GDP-bound HRAS wild-type protein to KD value with respect to KRAS) ([1]; class symbols): A (a compound having 10 or more and less than 20 is denoted as A) | NRAS/KRAS (ratio of KD value with respect to GDP-bound NRAS wild-type protein to KD value with respect to KRAS) ([2]; class symbols): A (a compound having 10 or more and less than 20 is denoted as A)

CCC(CC)[C@H]1C(=O)N(C)[C@H](C(=O)N(C)C)CC(=O)N(C)[C@@H](COC)C(=O)N[C@@H]([C@@H](C)CC)C(=O)N(C)CC(=O)N(C)[C@H]2C/C=C\CCN(C2=O)[C@@H](Cc2ccc(C(F)(F)F)cc2)C(=O)N(C)CC(=O)N[C@@H](CCc2cc(F)c(C(F)(F)F)c(F)c2)C(=O)N2CCOC[C@H]2C(=O)NC2(CC(C)(C)C2)C(=O)N1C [PP2917]
HRAS/KRAS (ratio of KD value with respect to GDP-bound HRAS wild-type protein to KD value with respect to KRAS) ([1]; class symbols): A (a compound having 10 or more and less than 20 is denoted as A) | NRAS/KRAS (ratio of KD value with respect to GDP-bound NRAS wild-type protein to KD value with respect to KRAS) ([2]; class symbols): AA (a compound having 20 or more is denoted as AA)

CC[C@H](C)[C@@H]1NC(=O)[C@@H]2CCC/C=C/c3ccc(cc3)C[C@@H](C(=O)N(C)CC(=O)N[C@@H](CCc3ccc(Cl)c(Cl)c3)C(=O)N3CCC[C@H]3C(=O)NC3(CC(C)(C)C3)C(=O)N(C)[C@@H](C3CCCC3)C(=O)N(C)[C@H](C(=O)N3CCCC3)CC(=O)N2C)N2CC/C=C\C[C@@H](C2=O)N(C)C(=O)CN(C)C1=O [PP2602]
HRAS/KRAS (ratio of KD value with respect to GDP-bound HRAS wild-type protein to KD value with respect to KRAS) ([1]; class symbols): A (a compound having 10 or more and less than 20 is denoted as A) | NRAS/KRAS (ratio of KD value with respect to GDP-bound NRAS wild-type protein to KD value with respect to KRAS) ([2]; class symbols): A (a compound having 10 or more and less than 20 is denoted as A)

CCO[C@@H]1C[C@H]2C(=O)NC3(CCC3)C(=O)N(C)[C@@H](C3CCCC3)C(=O)N(C)[C@H](C(=O)N(C)CC)CC(=O)N(C)[C@@H](C(C)C)C(=O)N[C@@H]([C@@H](C)CC)C(=O)N(C)CC(=O)N(C)[C@H]3C/C=C\CCN(C3=O)[C@@H](Cc3ccc(C(F)(F)F)cc3)C(=O)N(C)CC(=O)N[C@@H](CCc3cc(F)c(C(F)(F)F)c(F)c3)C(=O)N2C1 [PP1990]
HRAS/KRAS (ratio of KD value for HRAS to KD value for KRAS) [1, 3]: A (a compound having 10 or more and less than 20 is denoted as A) | NRAS/KRAS (ratio of KD value for NRAS to KD value for KRAS) [2, 4]: A (a compound having 10 or more and less than 20 is denoted as A)

CCO[C@@H]1C[C@H]2C(=O)NC3(CC(C)(C)C3)C(=O)N(C)[C@@H](C3CCCC3)C(=O)N(C)[C@H](C(=O)N3CCCCC3)CC(=O)N(C)[C@H]3CCCCCc4ccc(cc4)C[C@@H](C(=O)N(C)CC(=O)N[C@@H](CCc4ccc(C(F)(F)F)c(OC)c4)C(=O)N2C1)N1CC/C=C\C[C@@H](C1=O)N(C)C(=O)CN(C)C(=O)[C@H]([C@@H](C)CC)NC3=O [PP3036, (1S,7S,11R,13S,19S,22S,26S,29S,35S,37Z)-19-cyclopentyl-11-ethoxy-7-[2-[3-methoxy-4-(trifluoromethyl)phenyl]ethyl]-3,3′,3′,18,21,25,31,34-octamethyl-29-[(1S)-1-methylpropyl]-22-(piperidine-1-carbonyl)spiro[3,6,9,15,18,21,25,28,31,34,41-undecazapentacyclo[24.15.10.2^43,46.1^35,41.0^9,13]tetrapentaconta-37,43(53),44,46(52)-tetraene-16,1′-cyclobutane]-2,5,8,14,17,20,24,27,30,33,54-undecone]
HRAS/KRAS (ratio of KD value with respect to GDP-bound HRAS wild-type protein to KD value with respect to KRAS) [1, 5]: B (a compound having 3 or more and less than 10 is denoted as B) | NRAS/KRAS (ratio of KD value with respect to GDP-bound NRAS wild-type protein to KD value with respect to KRAS) [2, 5]: A (a compound having 10 or more and less than 20 is denoted as A)

CCO[C@@H]1C[C@H]2C(=O)NC3(CCC3)C(=O)N(C)[C@@H](C3CCCC3)C(=O)N(C)[C@H](C(=O)N(C)C)CC(=O)N(C)[C@@H](Cc3cccs3)C(=O)N[C@@H]([C@@H](C)CC)C(=O)N(C)CC(=O)N(C)[C@H]3CCCCCN(C3=O)[C@@H](Cc3ccc(F)cc3)C(=O)N(C)CC(=O)N[C@@H](CCc3cc(F)c(C(F)(F)F)c(F)c3)C(=O)N2C1 [PP1197]
HRAS/KRAS (ratio of KD value with respect to HRAS to KD value with respect to KRAS) [1, 3]: B (a compound having 3 or more and less than 10 is denoted as B) | NRAS/KRAS (ratio of KD value with respect to NRAS to KD value with respect to KRAS) [2, 4]: B (a compound having 3 or more and less than 10 is denoted as B)

CCO[C@@H]1C[C@H]2C(=O)NC3(CC(C)(C)C3)C(=O)N(C)[C@@H](C3CCCC3)C(=O)N(C)[C@H](C(=O)N3CCCC3)CC(=O)N(C)[C@@H](CC)C(=O)N[C@@H]([C@@H](C)CC)C(=O)N(C)CC(=O)N(C)[C@H]3C/C=C\CCN(C3=O)[C@@H](Cc3ccc(C(F)(F)F)cc3)C(=O)N(C)CC(=O)N[C@@H](CCc3cc(F)c(C(F)(F)F)c(F)c3)C(=O)N2C1 [PP1944]
HRAS/KRAS (ratio of KD value for HRAS to KD value for KRAS) [1, 3]: A (a compound having 10 or more and less than 20 is denoted as A) | NRAS/KRAS (ratio of KD value for NRAS to KD value for KRAS) [2, 4]: A (a compound having 10 or more and less than 20 is denoted as A)
